Data published in PubChem BioAssay AID1845195 (Molecular Pharmacology Branch, DTP, NCI, 2023).
Several values for one entry are separate records, joined by “and”; a condition that tells them apart may be missing. Equal entries are not always repeated.

System: 156681-154-R-J1 tumor spheroid viability
Test: Anticancer human tumor 156681-154-R-J1 patient-derived melanoma cell line growth inhibition
Settings: spheroids with HUVEC and MSC; for viability, T/C: stronger effect = lower value
How it was run: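 Complex spheroids of malignant cells with endothelial cells and mesenchymal stem cells; agents alone or combined, from near clinical Cmax (or 10 microM if unknown) down in half-log steps, 0.25% DMSO final.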

[1] = curve of first compound, second compound 0.003 µM
[2] = curve of first compound, second compound 0.00949 µM
[3] = curve of first compound, second compound 0.03 µM
[4] = curve of first compound, second compound 0.0949 µM
[5] = curve of first compound, second compound 0.3 µM
[6] = second compound 0.003 µM, first compound 0.0316 µM
[7] = second compound 0.003 µM, first compound 0.1 µM
[8] = second compound 0.003 µM, first compound 0.316 µM
[9] = second compound 0.003 µM, first compound 1 µM
[10] = second compound 0.003 µM, first compound 3.16 µM
[11] = second compound 0.003 µM, first compound 10 µM
[12] = second compound 0.00949 µM, first compound 0.0316 µM
[13] = second compound 0.00949 µM, first compound 0.1 µM
[14] = second compound 0.00949 µM, first compound 0.316 µM
[15] = second compound 0.00949 µM, first compound 1 µM
[16] = second compound 0.00949 µM, first compound 3.16 µM
[17] = second compound 0.00949 µM, first compound 10 µM
[18] = second compound 0.03 µM, first compound 0.0316 µM
[19] = second compound 0.03 µM, first compound 0.1 µM
[20] = second compound 0.03 µM, first compound 0.316 µM
[21] = second compound 0.03 µM, first compound 1 µM
[22] = second compound 0.03 µM, first compound 3.16 µM
[23] = second compound 0.03 µM, first compound 10 µM
[24] = second compound 0.0949 µM, first compound 0.0316 µM
[25] = second compound 0.0949 µM, first compound 0.1 µM
[26] = second compound 0.0949 µM, first compound 0.316 µM
[27] = second compound 0.0949 µM, first compound 1 µM
[28] = second compound 0.0949 µM, first compound 3.16 µM
[29] = second compound 0.0949 µM, first compound 10 µM
[30] = second compound 0.3 µM, first compound 0.0316 µM
[31] = second compound 0.3 µM, first compound 0.1 µM
[32] = second compound 0.3 µM, first compound 0.316 µM
[33] = second compound 0.3 µM, first compound 1 µM
[34] = second compound 0.3 µM, first compound 3.16 µM
[35] = second compound 0.3 µM, first compound 10 µM
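Also: spheroids exposed to compounds for 7 days before readout.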
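For viability, T/C in this document: percent of vehicle control viability where 100% = DMSO-treated spheroids.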

In the case of `Cc1cc(C)c(CNC(=O)c2cc(-c3ccc(CN4CCOCC4)cc3)cc3c2cnn3C2CCCC2)c(=O)[nH]1` + CC[C@@]1(O)C(=O)OCc2c1cc1n(c2=O)Cc2cc3c(CN(C)C)c(O)ccc3nc2-1, the IC50 [1] is reported as > 10000 nM, the IC50 [2] is reported as > 10000 nM and the IC50 [3] is reported as 8490 nM. The IC50 [4] was < 31.6 nM, the IC50 [5] was < 31.6 nM and the viability, T/C [6] was 137%. The viability, T/C [7] was 111%, the viability, T/C [8] was 86.7% and the viability, T/C [9] was 87.8%. It also gave a viability, T/C [10] of 84.4%, a viability, T/C [11] of 82.9% and a viability, T/C [12] of 83%. The viability, T/C [13] was 81.6%, the viability, T/C [14] was 73.8% and the viability, T/C [15] was 84.8%. For the same compound, the viability, T/C [16] was 84.5%, the viability, T/C [17] was 79.5% and the viability, T/C [18] was 65.7%. The viability, T/C [19] was 66.6%, the viability, T/C [20] was 55.4% and the viability, T/C [21] was 57.7%. For the same compound, the viability, T/C [22] was 49.3%, the viability, T/C [23] was 51% and the viability, T/C [24] was 23.4%. It also gave a viability, T/C [25] of 17.8%, a viability, T/C [26] of 25.1% and a viability, T/C [27] of 20.6%. For the same compound, the viability, T/C [28] was 17.5%, the viability, T/C [29] was 22.2% and the viability, T/C [30] was 31.3%. For the same compound, the viability, T/C [31] was 29.5%, the viability, T/C [32] was 31.8% and the viability, T/C [33] was 30.9%. For the same compound, the viability, T/C [34] was 27.6% and the viability, T/C [35] was 30.6%.
`COc1cc2c(cc1O)CCNC21CSC2c3c(OC(C)=O)c(C)c4c(c3C(COC1=O)N1C(O)C3Cc5cc(C)c(OC)c(O)c5C(C21)N3C)OCO4` (stereo not drawn) was tested, and the viability, T/C (compound 30 pM) was 95.8% [middle of 10 runs], the viability, T/C (compound 94.9 pM) was 101% [middle of 10 runs] and the viability, T/C (compound 0.0003 µM) was 80.7% [middle of 10 runs]. The viability, T/C (compound 0.000949 µM) was 4.41% [middle of 10 runs], the viability, T/C (compound 0.003 µM) was 0.17% [middle of 9 runs] and the IC50 (compound alone, run of 10/25/2019) was 0.477 nM [middle of 10 runs].
Compound `COc1ccc([C@@H](O)c2cc(-c3ncnc4cc(N5CCOCC5)ccc34)c(F)cc2Cl)nn1` + CC[C@@]1(O)C(=O)OCc2c1cc1n(c2=O)Cc2cc3c(CN(C)C)c(O)ccc3nc2-1 has an IC50 [1] of 5780 nM, an IC50 [2] of 3580 nM and an IC50 [3] of 616 nM. For the same compound, the IC50 [4] was < 31.6 nM, the IC50 [5] was < 31.6 nM and the viability, T/C [6] was 80.6%. For the same compound, the viability, T/C [7] was 70.4%, the viability, T/C [8] was 78.3% and the viability, T/C [9] was 63.9%. For the same compound, the viability, T/C [10] was 54.4%, the viability, T/C [11] was 46.6% and the viability, T/C [12] was 89.9%. For the same compound, the viability, T/C [13] was 75.9%, the viability, T/C [14] was 75% and the viability, T/C [15] was 62.4%. The viability, T/C [16] was 47.6%, the viability, T/C [17] was 43.3% and the viability, T/C [18] was 71.5%. For the same compound, the viability, T/C [19] was 57.8%, the viability, T/C [20] was 53.9% and the viability, T/C [21] was 49.5%. It also gave a viability, T/C [22] of 41.8%, a viability, T/C [23] of 35.3% and a viability, T/C [24] of 24.1%. For the same compound, the viability, T/C [25] was 30.7%, the viability, T/C [26] was 30.3% and the viability, T/C [27] was 34%. For the same compound, the viability, T/C [28] was 36.3%, the viability, T/C [29] was 28.4% and the viability, T/C [30] was 32.9%. The viability, T/C [31] was 36.8%, the viability, T/C [32] was 35.6% and the viability, T/C [33] was 42.1%. For the same compound, the viability, T/C [34] was 25.9% and the viability, T/C [35] was 8.42%.
With `Cc1cc(C)c(CNC(=O)c2cc(-c3ccc(CN4CCOCC4)cc3)cc3c2cnn3C2CCCC2)c(=O)[nH]1` the viability, T/C (compound 0.0316 µM) was 80.8% and 92.1% and 108%, the viability, T/C (compound 0.1 µM) was 101% and 82.4% and 85.2% and the viability, T/C (compound 0.316 µM) was 85.4% and 99.5% and 97.3%. For the same compound, the viability, T/C (compound 1 µM) was 97.1% and 73% and 93.2%, the viability, T/C (compound 3.16 µM) was 90.4% and 89.8% and 92.5% and the viability, T/C (compound 10 µM) was 90% and 87.1% and 91.1%. The IC50 (curve of compound) was > 10000 nM.
`CNCc1ccc(-c2cc(-c3nc(-c4ccc(S(=O)(=O)C(C)C)cc4)cnc3N)on2)cc1` + Cn1nnc2c(C(N)=O)ncn2c1=O gave an IC50 (curve of first compound, second compound 1 µM) of 1230 nM, an IC50 (curve of first compound, second compound 3.16 µM) of 915 nM and an IC50 (curve of first compound, second compound 10 µM) of 717 nM. The IC50 (curve of first compound, second compound 31.6 µM) was 494 nM, the IC50 (curve of first compound, second compound 100 µM) was 81.6 nM and the viability, T/C (second compound 1 µM, first compound 0.00949 µM) was 107%. It also gave a viability, T/C (second compound 1 µM, first compound 0.03 µM) of 100%, a viability, T/C (second compound 1 µM, first compound 0.0949 µM) of 98.8% and a viability, T/C (second compound 1 µM, first compound 0.3 µM) of 75.5%. For the same compound, the viability, T/C (second compound 1 µM, first compound 0.949 µM) was 62.3%, the viability, T/C (second compound 1 µM, first compound 3 µM) was 19% and the viability, T/C (second compound 3.16 µM, first compound 0.00949 µM) was 88.2%. The viability, T/C (second compound 3.16 µM, first compound 0.03 µM) was 100%, the viability, T/C (second compound 3.16 µM, first compound 0.0949 µM) was 90% and the viability, T/C (second compound 3.16 µM, first compound 0.3 µM) was 72.6%. The viability, T/C (second compound 3.16 µM, first compound 0.949 µM) was 50.7%, the viability, T/C (second compound 3.16 µM, first compound 3 µM) was 16.8% and the viability, T/C (second compound 10 µM, first compound 0.00949 µM) was 93.6%. It also gave a viability, T/C (second compound 10 µM, first compound 0.03 µM) of 73.9%, a viability, T/C (second compound 10 µM, first compound 0.0949 µM) of 80.7% and a viability, T/C (second compound 10 µM, first compound 0.3 µM) of 64.8%. The viability, T/C (second compound 10 µM, first compound 0.949 µM) was 46%, the viability, T/C (second compound 10 µM, first compound 3 µM) was 11.1% and the viability, T/C (second compound 31.6 µM, first compound 0.00949 µM) was 63.5%. For the same compound, the viability, T/C (second compound 31.6 µM, first compound 0.03 µM) was 65.1%, the viability, T/C (second compound 31.6 µM, first compound 0.0949 µM) was 59.5% and the viability, T/C (second compound 31.6 µM, first compound 0.3 µM) was 59.8%. The viability, T/C (second compound 31.6 µM, first compound 0.949 µM) was 38%, the viability, T/C (second compound 31.6 µM, first compound 3 µM) was 5.46% and the viability, T/C (second compound 100 µM, first compound 0.00949 µM) was 54.2%. It also gave a viability, T/C (second compound 100 µM, first compound 0.03 µM) of 53%, a viability, T/C (second compound 100 µM, first compound 0.0949 µM) of 54.1% and a viability, T/C (second compound 100 µM, first compound 0.3 µM) of 34.6%. For the same compound, the viability, T/C (second compound 100 µM, first compound 0.949 µM) was 22.1% and the viability, T/C (second compound 100 µM, first compound 3 µM) was 1.01%.
